Tests used:
[1] = Differential scanning calorimetry (DSC), glass transition temperature; assay type: physicochemical
Source text: Differential Scanning Calorimetry (DSC):
(§1) The compound (3) is excellent in heat resistance.
The compound is excellent in heat resistance.

[2] = Vacuum evaporation temperature test with HPLC of boat residual; assay type: physicochemical; details: for purity of residual on the vacuum evaporation boat after vacuum evaporation / purity of residual on the vacuum evaporation boat before vacuum evaporation: HPLC; for purity of residual on the vacuum evaporation boat after vacuum evaporation: after vacuum evaporation (thermal stability); for temperature needed to obtain an evaporation rate of 5 Å/second: vacuum evaporation
Protocol: (Vacuum Evaporation Temperature Test)
(§2) The residual on the vacuum evaporation boat before and after vacuum evaporation of the compound (3) was analyzed by high performance liquid chromatography, showing that the residual on the vacuum evaporation boat before and after vacuum evaporation was in fact found to have a purity of 100.00%.
(§3) In contrast, the compound (2) starts decomposition at a temperature of 412° C. as shown by the TG/DTA measurement. Since the temperature is close to the above-mentioned vacuum evaporation temperature (415° C.), it is expected that the compound (2) is accompanied by thermal decomposition at the vacuum evaporation temperature.

[3] = Thermogravimetric measurement/differential thermal analysis (TG/DTA); assay type: physicochemical
Protocol: Thermogravimetric Measurement/Differential Thermal Analysis (TG/DTA):
as §1, §2, §3
The compound (4) is excellent in heat resistance.

[4] = Solubility test in heated toluene; assay type: physicochemical
Protocol: 500 mL of heated toluene was needed to dissolve 1 g of the compound (2), but 50 mL of heated toluene was needed to dissolve 1 g of the compound (3).
500 mL of heated toluene was needed to dissolve 1 g of the compound (2), but 50 mL of heated toluene was needed to dissolve 1 g of the compound (4).

[5] = prior art, JP-A-2004-155754; cited from earlier work
Cyclic voltammetry (CV) = assay type: physicochemical; details: for stability in repetition: repeated oxidation-reduction

SMILES	glass transition temperature (Tg) [1]	purity of residual on the vacuum evaporation boat after vacuum evaporation [2] [%]	purity of residual on the vacuum evaporation boat before vacuum evaporation [2] [%]	temperature needed to obtain an evaporation rate of 5 Å/second [2] [°C]	temperature at which decomposition starts [3] [°C]	heated toluene needed to dissolve 1 g of the compound [4] [mL]	glass transition temperature [5] [°C]	oxidation potential (Cyclic voltammetry (CV))	reversibility of oxidation-reduction process (Cyclic voltammetry (CV))	stability in repetition (Cyclic voltammetry (CV))	decomposition temperature [3] [°C]
Cc1ccc(-c2ccc(N(c3ccc(C)cc3)c3cc(N(c4ccc(C)cc4)c4ccc(-c5ccc(C)cc5)cc4)cc(N(c4ccc(C)cc4)c4ccc(-c5ccc(C)cc5)cc4)c3)cc2)cc1 [compound (1), 1,3,5-tris(N-(4′-methyl-4-biphenylyl)-N-(4-methylphenyl)amino)benzene, reference compound]	103 °C										
Cc1ccc(-c2ccc(N(c3ccc(-c4ccc(C)cc4)cc3)c3cc(N(c4ccc(-c5ccc(C)cc5)cc4)c4ccc(-c5ccc(C)cc5)cc4)cc(N(c4ccc(-c5ccc(C)cc5)cc4)c4ccc(-c5ccc(C)cc5)cc4)c3)cc2)cc1 [compound (2), 1,3,5-tris(N,N-bis(4′-methyl-4-biphenylyl)amino)benzene, reference compound]	no glass transition temperature	95.87	99.03	415	412	500					
Cc1ccc(N(c2cc(N(c3ccc(C)cc3)c3cccc4ccccc34)cc(N(c3ccc(C)cc3)c3cccc4ccccc34)c2)c2cccc3ccccc23)cc1 [p-MTPNAB, 1,3,5-tris(N-(p-methylphenyl)-N-(1-naphthyl))-amino benzene]							87				
Cc1ccc(-c2ccc(N(c3ccc(-c4ccc(C)cc4)cc3)c3cc(N(c4ccc(C)cc4)c4ccc(C)cc4)cc(N(c4ccc(-c5ccc(C)cc5)cc4)c4ccc(-c5ccc(C)cc5)cc4)c3)cc2)cc1 [compound (3), N,N,N′,N′-tetrakis(4′-methyl-4-biphenylyl)-N″,N″-bis(4-methylphenyl)benzene-1,3,5-triamine]	179 °C	100.00	100.00	350	430	50		0.52 V (vs. Ag/Ag^+)	excellent	good	478
Cc1ccc(N(c2ccc(-c3ccccc3)cc2)c2cc(N(c3ccc(C)cc3)c3ccc(-c4ccccc4)cc3)cc(N(c3ccc(C)cc3)c3ccc(-c4ccccc4)cc3)c2)cc1 [p-MTPBAB, 1,3,5-tris(N-(p-methylphenyl)-N-(4-biphenylyl)amino)benzene]							98				
Cc1ccc(N(c2ccc(C)cc2)c2cc(N(c3ccc(-c4ccccc4)cc3)c3ccc(-c4ccccc4)cc3)cc(N(c3ccc(-c4ccccc4)cc3)c3ccc(-c4ccccc4)cc3)c2)cc1 [compound (4), N,N,N′,N′-tetrakis(4-biphenylyl)-N″,N″-bis(4-methylphenyl)benzene-1,3,5-triamine]	133 °C	99.64	99.30	340	498	50		0.54 V (vs. Ag/Ag^+)	excellent	good	498
